Measurements taken from the CheMixHub viscosity set.

Experiment: xn = mol fraction of the nth substance listed

CCCN(CCC)CCC + CCC(=O)O
viscosity [mPa·s], 101 kPa
Conditions | x2 = 0.1 | x2 = 0.4 | x2 = 0.5 | x2 = 0.6 | x2 = 0.7 | x2 = 0.75 | x2 = 0.775 | x2 = 0.8 | x2 = 0.9
293.15 K | 0.734 | 4.43 | 5.62 | 5.97 | 13.95 | 20.55 | 23.47 | 23.75 | 8.57
298.15 K | 0.664 | 3.85 | 5.12 | 5.22 | 11.2 | 16.25 | 18.67 | 18.96 | 7.5
303.15 K | 0.589 | 3.5 | 4.35 | 4.5 | 9.2 | 13.02 | 15 | 15.59 | 6.47
308.15 K | 0.54 | 3.1 | 3.75 | 3.8 | 7.7 | 10.85 | 12.22 | 12.77 | 5.81
313.15 K | 0.51 | 2.8 | 3.62 | 3.35 | 6.52 | 9 | 10.32 | 10.76 | 5.04
318.15 K | 0.499 | 2.45 | 3.03 | 3 | 5.57 | 7.62 | 8.68 | 8.96 | 4.4
323.15 K | 0.464 | 2.22 | 2.75 | 2.67 | 4.82 | 6.46 | 7.44 | 7.72 | 4.05

CCN(CC)c1ccccc1 + CCC(=O)O
Conditions | viscosity [mPa·s]
323.15 K, 101 kPa, x2 = 0.5177 | 1.865

ClCCCCl + CCC(C)(C)O
viscosity [mPa·s], 101 kPa
Conditions | x1 = 0.101 | x1 = 0.2021 | x1 = 0.3082 | x1 = 0.4082 | x1 = 0.5066 | x1 = 0.608 | x1 = 0.7071 | x1 = 0.808 | x1 = 0.9003
298.15 K | 2.779 | 1.877 | 1.393 | 1.18 | 1.061 | 0.9826 | 0.9381 | 0.9128 | 0.9114
313.15 K | 1.508 | 1.164 | 0.9559 | 0.8566 | 0.7978 | 0.7579 | 0.7469 | 0.7328 | 0.7431

CCCN(CCC)CCC + CCC(C)O
303.15 K, 101 kPa
Conditions | viscosity [mPa·s]
x1 = 0.009049 | 2.448
x1 = 0.02003 | 2.423
x1 = 0.02982 | 2.4
x1 = 0.04 | 2.379
x1 = 0.05207 | 2.352
x1 = 0.06138 | 2.332
x1 = 0.06704 | 2.317
x1 = 0.07865 | 2.291
x1 = 0.09178 | 2.264

ClCCCCl + CCC(C)O
viscosity [mPa·s], 101 kPa
Conditions | x1 = 0.1002 | x1 = 0.2005 | x1 = 0.3002 | x1 = 0.4005 | x1 = 0.4986 | x1 = 0.6027 | x1 = 0.6951 | x1 = 0.8051 | x1 = 0.9113
298.15 K | 2.23 | 1.683 | 1.346 | 1.134 | 1.031 | 0.9587 | 0.9141 | 0.894 | 0.8997
313.15 K | 1.369 | 1.103 | 0.9402 | 0.8403 | 0.7841 | 0.7468 | 0.7254 | 0.7214 | 0.7371

Cc1ccc(C(C)C)c(O)c1 + CCCCCCCC(=O)O
100 kPa, x2 = 0.579
Conditions | viscosity [mPa·s]
293.15 K | 9.71
298.15 K | 8
303.15 K | 6.68
308.15 K | 5.65
313.15 K | 4.83
318.15 K | 4.17
323.15 K | 3.64

Cc1ccc(C(C)C)c(O)c1 + CCCCCCCCCC(=O)O
100 kPa, x2 = 0.5
Conditions | viscosity [mPa·s]
293.15 K | 15.28
298.15 K | 12.16
303.15 K | 9.86
308.15 K | 8.12
313.15 K | 6.78
318.15 K | 5.74
323.15 K | 4.91

Cc1ccc(C(C)C)c(O)c1 + CCCCCCCCCCCC(=O)O
100 kPa, x2 = 0.45
Conditions | viscosity [mPa·s]
303.15 K | 12.43
308.15 K | 10.12
313.15 K | 8.37
318.15 K | 7.01
323.15 K | 5.95

Cc1ccc(C(C)C)c(O)c1 + CCCCCCCCCCCCCC(=O)O
100 kPa, x2 = 0.25
Conditions | viscosity [mPa·s]
313.15 K | 8.69
318.15 K | 7.16
323.15 K | 5.98

Cc1ccc(C(C)C)c(O)c1 + CCCCCCCCCCCCCCCC(=O)O
100 kPa, x2 = 0.2
Conditions | viscosity [mPa·s]
313.15 K | 9.21
318.15 K | 7.54
323.15 K | 6.29

Cc1ccc(C(C)C)c(O)c1 + CCCCCCCCCCCCCCCCCC(=O)O
100 kPa, x2 = 0.1
Conditions | viscosity [mPa·s]
318.15 K | 6.88
323.15 K | 5.68

CCN(CC)c1ccccc1 + CCCCCCCCO
viscosity [mPa·s], 100 kPa
Conditions | x1 = 0.1141 | x1 = 0.2548 | x1 = 0.3537 | x1 = 0.4726 | x1 = 0.5725 | x1 = 0.6945 | x1 = 0.7795 | x1 = 0.8584 | x1 = 0.9317
303.15 K | 5.389 | 4.382 | 3.806 | 3.235 | 2.842 | 2.446 | 2.212 | 2.016 | 1.847
308.15 K | 4.42 | 3.49 | 2.987 | 2.519 | 2.221 | 1.947 | 1.8 | 1.684 | 1.587
313.15 K | 3.684 | 2.854 | 2.428 | 2.056 | 1.837 | 1.653 | 1.56 | 1.487 | 1.421
318.15 K | 3.135 | 2.356 | 1.976 | 1.667 | 1.503 | – | 1.339 | 1.305 | 1.271

CCN(CC)c1ccccc1 + CCCCCCCO
viscosity [mPa·s], 100 kPa
Conditions | x1 = 0.1216 | x1 = 0.2426 | x1 = 0.3349 | x1 = 0.4641 | x1 = 0.5612 | x1 = 0.6524 | x1 = 0.7356 | x1 = 0.8144 | x1 = 0.9141
303.15 K | 4.25 | 3.593 | 3.178 | 2.706 | 2.425 | 2.21 | 2.049 | 1.923 | 1.792
308.15 K | 3.658 | 3.095 | 2.735 | 2.323 | 2.079 | 1.895 | 1.763 | 1.665 | 1.577
313.15 K | 3.122 | 2.622 | 2.308 | 1.96 | 1.76 | 1.617 | 1.52 | 1.455 | 1.405
318.15 K | 2.671 | 2.129 | 1.826 | 1.535 | 1.398 | 1.319 | 1.278 | 1.257 | 1.243
